For assay [1], the target named is T1, RAF1 (cRAF) Y340D Y341D (Homo sapiens, UniProt P04049, Y340D/Y341D).
T1 construct: purchased Life Technologies PV 4046
Description: Z'-LYTE kinase selectivity assay RAF1. In kind it is biochemical. From the text:
(§1) In order to compare the kinase selectivity of compounds (I) according to the invention with known prior art compounds the commercially provided SelectScreen® Kinase Profiling Service (Z′-LYTE®) was used (Life Technologies GmbH, Darmstadt, Germany) to investigate the ability of the compounds to inhibit a number of different, representatively selected human kinases. Further details regarding this service are available on the Life Technologies website at
(§2) The Z′-LYTE® biochemical assay employs a fluorescence-based, coupled-enzyme format and is based on the differential sensitivity of phosphorylated and non-phosphorylated peptides to proteolytic cleavage. The peptide substrate is labeled with two fluorophores—one at each end—that make up a FRET pair.
(§3) In the primary reaction, the kinase transfers the gamma-phosphate of ATP to a single tyrosine, serine or threonine residue in a synthetic FRET-peptide. In the secondary reaction, a site-specific protease recognizes and cleaves non-phosphorylated FRET-peptides. Phosphorylation of FRET-peptides suppresses cleavage by the Development Reagent. Cleavage disrupts FRET between the donor (i.e., coumarin) and acceptor (i.e., fluorescein) fluorophores on the FRET-peptide, whereas uncleaved, phosphorylated FRET-peptides maintain FRET. A ratiometric method, which calculates the ratio (the Emission Ratio) of donor emission to acceptor emission after excitation of the donor fluorophore at 400 nm, is used to quantitate reaction progress, as shown in the equation below.
(§4) The Test Compounds are screened at 1 μM.
After the 1 hour Kinase Reaction incubation, 5 μL of a 1:1024 dilution of Development Reagent A is added.

The target in assay [2] is T2, LCK (Homo sapiens, UniProt P06239).
T2 construct: purchased Life Technologies P 3043
In words: Z'-LYTE kinase selectivity assay LCK. In kind it is biochemical.
Excerpt: as §1, §2, §3, §4
The 2×LCK (# P 3043)/Tyr 02 (Z′-LYTE® Kinase Assay Kit—Tyrosine 2 Peptide, # PV 3191) mixture is prepared in 50 mM HEPES pH 7.5, 0.01% BRIJ-35, 10 mM MgCl2, 1 mM EGTA. The final 10 μL Kinase Reaction consists of 2.46-50 ng LCK and 2 μM Tyr 02 in 50 mM HEPES pH 7.5, 0.01% BRIJ-35, 10 mM MgCl2, 1 mM EGTA. After the 1 hour Kinase Reaction incubation, 5 μL of a 1:128 dilution of Development Reagent A is added.

For assay [3], the target named is T3, PAK4 (Homo sapiens, UniProt O96013).
T3 construct: purchased Life Technologies PV 4212
Description: Z'-LYTE kinase selectivity assay PAK4. Type of assay: biochemical.
Excerpt: as §1, §2, §3, §4
The 2×PAK4 (# PV 4212)/Ser/Thr 20 (Z′-LYTE® Kinase Assay Kit—Ser/Thr 20 Peptide, # PV 4532) mixture is prepared in 50 mM HEPES pH 7.5, 0.01% BRIJ-35, 10 mM MgCl2, 1 mM EGTA. The final 10 μL Kinase Reaction consists of 0.1-0.75 ng PAK4 and 2 μM Ser/Thr 20 in 50 mM HEPES pH 7.5, 0.01% BRIJ-35, 10 mM MgCl2, 1 mM EGTA. After the 1 hour Kinase Reaction incubation, 5 μL of a 1:512 dilution of Development Reagent A is added.

The subject of assay [4] is TC-71 (EWING'S sarcoma) cells. Description: Cell proliferation assay TC-71 (Alamar Blue). The following applies: anti-proliferative effect, TC-71 cells, 72 h; read-out: TC71 EC50. In kind it is cell-based. The protocol: Cell Proliferation Assays
Compounds were tested for their anti-proliferative effects in the TC-71 (EWING'S sarcoma) and HCT 116 (colorectal carcinoma) cancer cell lines in vitro. Published scientific data has described that interference with the IGF-1R signaling pathway reduces the proliferation of TC-71 cells (Manara et al, 2007). Therefore TC-71 cells served as a positive control cell line for monitoring the activity of compounds against IGF-1R-mediated cell proliferation. […] Therefore the HCT 116 cell line served as a negative control.
2000 TC-71 cells or 1000 HCT 116 cells were seeded per well in 180 μL IMDM+10% foetal calf serum (FCS)+penicillin/streptomycin into 96-well microtitre plates. The plates were placed in a cell culture incubator (37° C. in a humidified atmosphere of […]/5% CO2) overnight. The following day, serial dilutions of compounds, prepared in duplicates, were transferred onto the cell layers (controls without compound). The cells were cultivated for a further 72 h in the cell culture incubator. 20 μL of Alamar Blue™ (Serotec Ltd, Dusseldorf, Germany) was added to each well and the plates incubated for 7 h in the cell culture incubator. Fluorescence (extinction wavelength of 544 nm and emission at 590 nm) was then measured and the normalized data fitted by iterative calculation with a sigmoidal curve analysis program (Graph Pad Prism) with a variable Hill slope to determine the EC50 values.

For assay [5], the target named is T4, CHEK1 (CHK1) (Homo sapiens, UniProt O14757).
T4 construct: purchased Life Technologies P 3040
T4 sequence (O14757 1-476): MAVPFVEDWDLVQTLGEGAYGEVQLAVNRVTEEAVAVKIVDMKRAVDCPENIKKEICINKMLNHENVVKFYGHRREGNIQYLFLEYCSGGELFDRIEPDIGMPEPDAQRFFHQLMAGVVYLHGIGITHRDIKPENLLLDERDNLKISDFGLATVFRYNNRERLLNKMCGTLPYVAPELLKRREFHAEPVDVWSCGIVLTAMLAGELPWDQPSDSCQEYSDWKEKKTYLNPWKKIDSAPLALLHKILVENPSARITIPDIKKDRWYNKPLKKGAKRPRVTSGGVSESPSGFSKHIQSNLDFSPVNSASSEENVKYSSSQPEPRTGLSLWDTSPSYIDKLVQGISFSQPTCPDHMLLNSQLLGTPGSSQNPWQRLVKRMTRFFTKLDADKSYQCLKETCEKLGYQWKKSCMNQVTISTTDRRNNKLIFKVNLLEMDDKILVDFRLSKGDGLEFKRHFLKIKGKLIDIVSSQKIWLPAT
In words: Z'-LYTE kinase selectivity assay CHEK1. Type of assay: biochemical.
Excerpt: as §1, §2, §3, §4
The 2×CHEK1 (CHK1) (# P 3040)/Ser/Thr 19 (Z′-LYTE® Kinase Assay Kit—Ser/Thr 19 Peptide, # PV 4529) mixture is prepared in 50 mM HEPES pH 7.5, 0.01% BRIJ-35, 10 mM MgCl2, 1 mM EGTA. The final 10 μL Kinase Reaction consists of 2.04-35 ng CHEK1 (CHK1) and 2 μM Ser/Thr 19 in 50 mM HEPES pH 7.5, 0.01% BRIJ-35, 10 mM MgCl2. 1 mM EGTA. After the 1 hour Kinase Reaction incubation, 5 μL of a 1:256 dilution of Development Reagent A is added.

As usually defined, the inhibition is the percentage by which the read-out fell short of the control. A lower inhibition goes with a response near the control. As a reminder, the pEC50 is the negative decadic logarithm of the EC50, by convention in mol/L.

pEC50: −log10 of the molar value.

T1 sequence (P04049 306-648 Y340D/Y341D limits assumed): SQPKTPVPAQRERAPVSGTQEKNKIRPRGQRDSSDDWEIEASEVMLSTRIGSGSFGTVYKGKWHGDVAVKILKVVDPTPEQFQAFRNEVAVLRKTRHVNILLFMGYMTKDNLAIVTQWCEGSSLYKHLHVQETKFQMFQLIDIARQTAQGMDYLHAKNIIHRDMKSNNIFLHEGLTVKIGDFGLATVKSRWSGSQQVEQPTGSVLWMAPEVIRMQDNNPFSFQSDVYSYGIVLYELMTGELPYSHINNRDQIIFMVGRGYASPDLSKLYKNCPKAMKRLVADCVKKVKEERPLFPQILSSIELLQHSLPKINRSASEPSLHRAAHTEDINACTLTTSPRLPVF
T3 sequence (O96013 whole entry): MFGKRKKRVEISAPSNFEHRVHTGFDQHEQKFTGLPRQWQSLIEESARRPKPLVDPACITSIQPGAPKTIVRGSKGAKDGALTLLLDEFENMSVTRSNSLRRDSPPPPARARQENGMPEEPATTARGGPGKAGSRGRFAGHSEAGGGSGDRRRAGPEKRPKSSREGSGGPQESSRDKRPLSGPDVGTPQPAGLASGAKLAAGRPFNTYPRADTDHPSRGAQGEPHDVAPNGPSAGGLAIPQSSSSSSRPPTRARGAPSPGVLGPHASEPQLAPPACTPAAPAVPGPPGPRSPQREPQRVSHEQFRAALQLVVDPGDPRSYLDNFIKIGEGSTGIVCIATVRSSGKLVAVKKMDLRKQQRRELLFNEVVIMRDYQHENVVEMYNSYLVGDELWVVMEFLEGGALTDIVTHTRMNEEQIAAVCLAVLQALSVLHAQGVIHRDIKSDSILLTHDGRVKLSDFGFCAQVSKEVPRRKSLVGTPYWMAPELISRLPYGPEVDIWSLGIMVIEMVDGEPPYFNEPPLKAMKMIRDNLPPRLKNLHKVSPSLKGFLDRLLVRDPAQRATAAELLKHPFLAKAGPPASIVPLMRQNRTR
T2 sequence (P06239 whole entry): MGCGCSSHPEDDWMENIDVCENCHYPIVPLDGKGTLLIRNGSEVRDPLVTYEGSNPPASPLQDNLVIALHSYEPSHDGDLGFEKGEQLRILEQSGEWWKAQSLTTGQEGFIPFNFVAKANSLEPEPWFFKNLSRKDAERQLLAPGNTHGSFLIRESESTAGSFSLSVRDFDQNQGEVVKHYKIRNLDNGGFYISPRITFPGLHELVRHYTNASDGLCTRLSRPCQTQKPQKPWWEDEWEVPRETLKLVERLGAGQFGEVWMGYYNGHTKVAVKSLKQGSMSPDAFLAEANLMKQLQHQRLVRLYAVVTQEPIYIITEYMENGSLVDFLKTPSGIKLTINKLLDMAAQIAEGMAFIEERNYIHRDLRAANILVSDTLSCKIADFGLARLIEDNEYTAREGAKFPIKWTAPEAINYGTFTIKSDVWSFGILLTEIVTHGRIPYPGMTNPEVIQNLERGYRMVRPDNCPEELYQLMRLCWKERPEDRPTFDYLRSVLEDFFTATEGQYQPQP

Take `CC(O)CN1CCN(CCn2ccc(Nc3ncc4c(n3)-c3c(nn(C)c3-c3ccccc3)C[C@H]4C)n2)CC1` (some centres unmarked) [Compound I-7]: the inhibition at 1 µM in assay [1] amounted to 36%; in assay [2], 84%; in assay [3], 19%; in assay [5] it was 38%. Moreover, the pEC50 in assay [4] was 8.66.

`C[C@@H]1Cc2nn(C)c(-c3ccccc3)c2-c2nc(Nc3ccn(CCN4CCN(C)CC4)n3)ncc21` [Compound I-1]: the inhibition at 1 µM is 16% in assay [1], 85% in assay [2], 14% in assay [3] and 11% in assay [5]. Also, in assay [4], the pEC50 was 8.58.

Regarding `C[C@@H]1Cc2nn(C)c(-c3ccccc3)c2-c2nc(Nc3ccn(CCN4CCN(CC(C)(C)O)CC4)n3)ncc21` [Compound I-3], the inhibition at 1 µM in assay [1] was found to be 31%; in assay [2], 82%; in assay [3] it was 39%; in assay [5], 31%. Besides, in assay [4], the pEC50 was 8.57.

On to `C[C@@H]1Cc2nn(C)c(-c3ccccc3)c2-c2nc(Nc3ccn(CCN4CCN(CC(=O)OC5CCOCC5)CC4)n3)ncc21` [Compound I-8], for which the inhibition at 1 µM in assay [1] turned out to be 25%; in assay [2] it was 59%; in assay [3] it was 21%; in assay [5], 17%. Further, the pEC50 in assay [4] was 8.22.

For `COCCN1CCN(CCn2ccc(Nc3ncc4c(n3)-c3c(nn(C)c3-c3ccccc3)C[C@H]4C)n2)CC1` [Compound I-11], the inhibition at 1 µM was 14% in assay [1], 76% in assay [2], 27% in assay [3] and 25% in assay [5]. In addition, the pEC50 in assay [4] was 8.43.

Regarding `C[C@@H]1Cc2nn(C)c(-c3ccccc3)c2-c2nc(Nc3ccn(CCN4CCOCC4)n3)ncc21` [Compound I-2], the inhibition at 1 µM in assay [1] came out at 40%; in assay [2], 78%; in assay [3] it was 24%; in assay [5], 23%. Besides, the pEC50 in assay [4] was 8.63.

Turning to `C[C@@H]1Cc2nn(C)c(-c3ccccc3)c2-c2nc(Nc3ccn(CCN4CCN(CC5CCCO5)CC4)n3)ncc21` (some centres unmarked) [Compound I-9], the inhibition at 1 µM is 32% in assay [1], 80% in assay [2], 32% in assay [3] and 26% in assay [5]. Moreover, the negative-log EC50 (pEC50) in assay [4] was 8.27.

These data come from patent US10414769B2, “5,8-dimethyl-9-phenyl-5,8-dihydro-6H-pyrazolo[3,4-h]quinazolin-2-yl)-(1H-pyrazol-3-yl)-amines as IGF-1R/IR inhibitors” (Boehringer Ingelheim International GmbH, priority 2015, dated 2019).
